In US4757133A, “Physiologically active peptide” (Eisai Co., Ltd., priority 1986, dated 1988):
Peptide text beside a SMILES is read from it.

Tested on: smooth muscle of a bronchus
Test: Relaxation of muscle of bronchus removed from guinea pig (histamine-contracted tracheal chain, four-point assay)
Settings: isolated guinea pig trachea chain, 6.5×10^-6 M histamine in Krebs solution at 37° C.; samples at 10^-5 M; area value of VIP-NH2 taken as 100%
Text: A. Determination on Relaxation of Muscle of Bronchus Removed from Guinea Pig:
The juglar vein of a male guinea pig weighing 300 g or more is cut, causing the guinea pig to be bled to death. The guinea pig undergoes thoracotomy. Immediately after the thoracotomy, 3 cm of the trachea is taken out. The trachea is immediately put in a Krebs solution. It is then cut into seven equal rings, and the cartilages are connected to one another with a cotton yarn to form a chain. Subsequently, the smooth muscle parts and cartilages opposite them are cut, so that the smooth muscle parts can be connected to one another. The preparation thus prepared is placed in an isothermic glass cell having an internal capacity of about 7 ml and suspended from above. The lower part of the preparation is fixed, while the upper part is connected to an isometric transducer, to which 0.5 g of a load has been applied, in order to determine the relaxation reaction. Sufficient amounts of 95% oxygen and 5% carbon dioxide gas are blown into the preparation. Further, a Krebs solution of 37° C. containing 6.5×10^-6 M histamine is dropped on the preparation from above at a flow rate of 3.3 ml/min. The relaxation reaction takes place to an extent proportional to the amount of a sample added to the dropped solution. By utilizing this relationship, the relaxation activity against bronchial smooth muscle with respect to the substance of the present invention is compared with that of VIP-NH2. VIP-NH2 is used at a concentration of 10^-5 M and dropped in amounts of 40 μl and 80 μl. The substance of the present invention is also used at a concentration of 10^-5 M and dropped in amounts of 10 μl and 20 μl. The value of the area (height×time) in relaxation of each case is determined. The specific activities are obtained by taking the area value of VIP-NH2 as 100% and determining the relative ratio of the area value of each case. Thus, the relaxation reactions are compared by the four-point assay method, with respect to the above-mentioned determination method, reference may be made to the following articles (e) and (f):
(e) W. L. M. Perry, Pharmacological Experiments on Isolated Preparations: E & S Livingstone LTD. 1968; and
(f) Castillo, De Beer, J. Phamac. Exp. Ther. 90, 104 (1947).

SMILES | A: specific activity (%) obtained by method A (relaxation area value relative to VIP-NH2) [%]
CC[C@H](C)[C@H](NC(=O)[C@H](CO)NC(=O)[C@H](CC(N)=O)NC(=O)[C@H](CC(C)C)NC(=O)[C@H](Cc1ccc(O)cc1)NC(=O)[C@H](CCCCN)NC(=O)[C@H](CCCCN)NC(=O)[C@@H](NC(=O)[C@H](C)NC(=O)[C@H](CCSC)NC(=O)[C@H](CCC(N)=O)NC(=O)[C@H](CCCCN)NC(=O)[C@H](CCCNC(=N)N)NC(=O)[C@H](CC(C)C)NC(=O)[C@H](CCCNC(=N)N)NC(=O)[C@@H](NC(=O)[C@H](Cc1ccc(O)cc1)NC(=O)[C@H](CC(N)=O)NC(=O)[C@H](CC(=O)O)NC(=O)[C@@H](NC(=O)[C@H](Cc1ccccc1)NC(=O)[C@@H](NC(=O)[C@H](C)NC(=O)[C@H](CC(=O)O)NC(=O)[C@H](CO)NC(=O)[C@@H](N)Cc1c[nH]cn1)C(C)C)[C@@H](C)O)[C@@H](C)O)C(C)C)C(=O)N[C@@H](CC(C)C)C(=O)N[C@@H](CC(N)=O)C(=O)NCC(=O)N[C@@H](CCCCN)C(N)=O [X=Met Y=Lys-NH2] | 140
CC[C@H](C)[C@H](NC(=O)[C@H](CO)NC(=O)[C@H](CC(N)=O)NC(=O)[C@H](CC(C)C)NC(=O)[C@H](Cc1ccc(O)cc1)NC(=O)[C@H](CCCCN)NC(=O)[C@H](CCCCN)NC(=O)[C@@H](NC(=O)[C@H](C)NC(=O)[C@H](CCSC)NC(=O)[C@H](CCC(N)=O)NC(=O)[C@H](CCCCN)NC(=O)[C@H](CCCNC(=N)N)NC(=O)[C@H](CC(C)C)NC(=O)[C@H](CCCNC(=N)N)NC(=O)[C@@H](NC(=O)[C@H](Cc1ccc(O)cc1)NC(=O)[C@H](CC(N)=O)NC(=O)[C@H](CC(=O)O)NC(=O)[C@@H](NC(=O)[C@H](Cc1ccccc1)NC(=O)[C@@H](NC(=O)[C@H](C)NC(=O)[C@H](CC(=O)O)NC(=O)[C@H](CO)NC(=O)[C@@H](N)Cc1c[nH]cn1)C(C)C)[C@@H](C)O)[C@@H](C)O)C(C)C)C(=O)N[C@@H](CC(C)C)C(=O)N[C@@H](CC(N)=O)C(=O)NCC(=O)N[C@@H](CCCCN)C(=O)O [X=Met Y=Lys-OH] | 300
CC[C@H](C)[C@H](NC(=O)[C@H](CO)NC(=O)[C@H](CC(N)=O)NC(=O)[C@H](CC(C)C)NC(=O)[C@H](Cc1ccc(O)cc1)NC(=O)[C@H](CCCCN)NC(=O)[C@H](CCCCN)NC(=O)[C@@H](NC(=O)[C@H](C)NC(=O)[C@H](CC(C)C)NC(=O)[C@H](CCC(N)=O)NC(=O)[C@H](CCCCN)NC(=O)[C@H](CCCNC(=N)N)NC(=O)[C@H](CC(C)C)NC(=O)[C@H](CCCNC(=N)N)NC(=O)[C@@H](NC(=O)[C@H](Cc1ccc(O)cc1)NC(=O)[C@H](CC(N)=O)NC(=O)[C@H](CC(=O)O)NC(=O)[C@@H](NC(=O)[C@H](Cc1ccccc1)NC(=O)[C@@H](NC(=O)[C@H](C)NC(=O)[C@H](CC(=O)O)NC(=O)[C@H](CO)NC(=O)[C@@H](N)Cc1c[nH]cn1)C(C)C)[C@@H](C)O)[C@@H](C)O)C(C)C)C(=O)N[C@@H](CC(C)C)C(=O)N[C@@H](CC(N)=O)C(=O)NCC(=O)N[C@@H](CCCCN)C(N)=O [X=Leu Y=Lys-NH2] (H-HSDAVFTDNYTRLRKQLAVKKYLNSILNGK-NH2) | 300
CC[C@H](C)[C@H](NC(=O)[C@H](CO)NC(=O)[C@H](CC(N)=O)NC(=O)[C@H](CC(C)C)NC(=O)[C@H](Cc1ccc(O)cc1)NC(=O)[C@H](CCCCN)NC(=O)[C@H](CCCCN)NC(=O)[C@@H](NC(=O)[C@H](C)NC(=O)[C@H](CCSC)NC(=O)[C@H](CCC(N)=O)NC(=O)[C@H](CCCCN)NC(=O)[C@H](CCCNC(=N)N)NC(=O)[C@H](CC(C)C)NC(=O)[C@H](CCCNC(=N)N)NC(=O)[C@@H](NC(=O)[C@H](Cc1ccc(O)cc1)NC(=O)[C@H](CC(N)=O)NC(=O)[C@H](CC(=O)O)NC(=O)[C@@H](NC(=O)[C@H](Cc1ccccc1)NC(=O)[C@@H](NC(=O)[C@H](C)NC(=O)[C@H](CC(=O)O)NC(=O)[C@H](CO)NC(=O)[C@@H](N)Cc1c[nH]cn1)C(C)C)[C@@H](C)O)[C@@H](C)O)C(C)C)C(=O)N[C@@H](CC(C)C)C(=O)N[C@@H](CC(N)=O)C(=O)NCC(=O)O [X=Met Y=OH] | 70
CC[C@H](C)[C@H](NC(=O)[C@H](CO)NC(=O)[C@H](CC(N)=O)NC(=O)[C@H](CC(C)C)NC(=O)[C@H](Cc1ccc(O)cc1)NC(=O)[C@H](CCCCN)NC(=O)[C@H](CCCCN)NC(=O)[C@@H](NC(=O)[C@H](C)NC(=O)[C@H](CC(C)C)NC(=O)[C@H](CCC(N)=O)NC(=O)[C@H](CCCCN)NC(=O)[C@H](CCCNC(=N)N)NC(=O)[C@H](CC(C)C)NC(=O)[C@H](CCCNC(=N)N)NC(=O)[C@@H](NC(=O)[C@H](Cc1ccc(O)cc1)NC(=O)[C@H](CC(N)=O)NC(=O)[C@H](CC(=O)O)NC(=O)[C@@H](NC(=O)[C@H](Cc1ccccc1)NC(=O)[C@@H](NC(=O)[C@H](C)NC(=O)[C@H](CC(=O)O)NC(=O)[C@H](CO)NC(=O)[C@@H](N)Cc1c[nH]cn1)C(C)C)[C@@H](C)O)[C@@H](C)O)C(C)C)C(=O)N[C@@H](CC(C)C)C(=O)N[C@@H](CC(N)=O)C(=O)NCC(=O)N[C@@H](CCCCN)C(=O)O [X=Leu Y=Lys-OH] (H-HSDAVFTDNYTRLRKQLAVKKYLNSILNGK-OH) | 410
CC[C@H](C)[C@H](NC(=O)[C@H](CO)NC(=O)[C@H](CC(N)=O)NC(=O)[C@H](CC(C)C)NC(=O)[C@H](Cc1ccc(O)cc1)NC(=O)[C@H](CCCCN)NC(=O)[C@H](CCCCN)NC(=O)[C@@H](NC(=O)[C@H](C)NC(=O)[C@H](CCSC)NC(=O)[C@H](CCC(N)=O)NC(=O)[C@H](CCCCN)NC(=O)[C@H](CCCNC(=N)N)NC(=O)[C@H](CC(C)C)NC(=O)[C@H](CCCNC(=N)N)NC(=O)[C@@H](NC(=O)[C@H](Cc1ccc(O)cc1)NC(=O)[C@H](CC(N)=O)NC(=O)[C@H](CC(=O)O)NC(=O)[C@@H](NC(=O)[C@H](Cc1ccccc1)NC(=O)[C@@H](NC(=O)[C@H](C)NC(=O)[C@H](CC(=O)O)NC(=O)[C@H](CO)NC(=O)[C@@H](N)Cc1c[nH]cn1)C(C)C)[C@@H](C)O)[C@@H](C)O)C(C)C)C(=O)N[C@@H](CC(C)C)C(=O)N[C@@H](CC(N)=O)C(=O)NCC(=O)N[C@@H](CCCNC(=N)N)C(=O)O [X=Met Y=Arg-OH] | 220
CC[C@H](C)[C@H](NC(=O)[C@H](CO)NC(=O)[C@H](CC(N)=O)NC(=O)[C@H](CC(C)C)NC(=O)[C@H](Cc1ccc(O)cc1)NC(=O)[C@H](CCCCN)NC(=O)[C@H](CCCCN)NC(=O)[C@@H](NC(=O)[C@H](C)NC(=O)[C@H](CCSC)NC(=O)[C@H](CCC(N)=O)NC(=O)[C@H](CCCCN)NC(=O)[C@H](CCCNC(=N)N)NC(=O)[C@H](CC(C)C)NC(=O)[C@H](CCCNC(=N)N)NC(=O)[C@@H](NC(=O)[C@H](Cc1ccc(O)cc1)NC(=O)[C@H](CC(N)=O)NC(=O)[C@H](CC(=O)O)NC(=O)[C@@H](NC(=O)[C@H](Cc1ccccc1)NC(=O)[C@@H](NC(=O)[C@H](C)NC(=O)[C@H](CC(=O)O)NC(=O)[C@H](CO)NC(=O)[C@@H](N)Cc1c[nH]cn1)C(C)C)[C@@H](C)O)[C@@H](C)O)C(C)C)C(=O)N[C@@H](CC(C)C)C(=O)N[C@@H](CC(N)=O)C(=O)NCC(=O)N[C@@H](CCCCN)C(=O)N[C@@H](CCCNC(=N)N)C(=O)O [X=Met Y=Lys-Arg-OH] | 460
CC[C@H](C)[C@H](NC(=O)[C@H](CO)NC(=O)[C@H](CC(N)=O)NC(=O)[C@H](CC(C)C)NC(=O)[C@H](Cc1ccc(O)cc1)NC(=O)[C@H](CCCCN)NC(=O)[C@H](CCCCN)NC(=O)[C@@H](NC(=O)[C@H](C)NC(=O)[C@H](CC(C)C)NC(=O)[C@H](CCC(N)=O)NC(=O)[C@H](CCCCN)NC(=O)[C@H](CCCNC(=N)N)NC(=O)[C@H](CC(C)C)NC(=O)[C@H](CCCNC(=N)N)NC(=O)[C@@H](NC(=O)[C@H](Cc1ccc(O)cc1)NC(=O)[C@H](CC(N)=O)NC(=O)[C@H](CC(=O)O)NC(=O)[C@@H](NC(=O)[C@H](Cc1ccccc1)NC(=O)[C@@H](NC(=O)[C@H](C)NC(=O)[C@H](CC(=O)O)NC(=O)[C@H](CO)NC(=O)[C@@H](N)Cc1c[nH]cn1)C(C)C)[C@@H](C)O)[C@@H](C)O)C(C)C)C(=O)N[C@@H](CC(C)C)C(=O)N[C@@H](CC(N)=O)C(=O)NCC(=O)N[C@@H](CCCCN)C(=O)N[C@@H](CCCNC(=N)N)C(=O)O [X=Leu Y=Lys-Arg-OH] (H-HSDAVFTDNYTRLRKQLAVKKYLNSILNGKR-OH) | 410
